We go through 1 compound from US20140147528A1, “GARLIC FORMULATION AND A PROCESS FOR PREPARING THE SAME FOR TREATMENT OF DIABETES” (priority 2012, published 2014).

Assay type in all cases: in vivo, rat
Assay [1] relates to STZ diabetic rats. In words: Serum total protein, creatinine and uric acid in STZ diabetic rats. The following applies: Glibenclamide 10 mg/kg p.o. (Group III), 21 days, ± S.E, n=6. As for the experimental part:
(§1) The garlic tablet at the said dosages was subjected to efficacy studies in diabetic animal models. For the efficacy studies on diabetes, studies were carried out using male Wistar albino rats (150-200 g). The animals were grouped and housed in polyacrylic cages with not more than six animals per cage and maintained under standard laboratory conditions (temperature 25°±2° C.) with dark and light cycle (12/12 h). The animals were fed with standard pellet diet supplied by Hindustan Lever Ltd., India and fresh water ad libitum. All the animals were acclimatized to laboratory condition for a week before commencement of experiment. […] were divided into five groups for further experiments.
(§2) Rats were randomly allocated to five groups. Diabetes was induced by a single intraperitoneal injection of 120 mg/kg of Streptozotocin (STZ) in citrate buffer (0.1 M, pH 4.5). Group I consisted of normal healthy rats that were administered 1 ml/kg of 0.5% carboxy methylcellulose (CMC) solution orally. Group II consisted of diabetic rats used as control and were administered orally 1 ml/kg of 0.5% carboxy methylcellulose solution. Groups III consisted of diabetic rats treated daily with oral administration of 10 mg/kg of glibenclamide. Group IV consisted of diabetic rats treated orally with 500 mg of tablet suspended in 0.5% carboxy methylcellulose solution. Group V consisted of diabetic rats treated orally with 1000 mg of tablet suspended in 0.5% carboxy methylcellulose solution.
(§3) All the test drugs were administered for 21 days. Blood glucose levels were estimated on the 1st, 3rd, 7th, 14th and 21st day by collecting tail vein using glucometer during drug treatment. On the 22nd day, the blood was collected for biochemical estimation by sinus puncture under anesthesia. The animals were sacrificed by cervical dislocation and organs were removed for histopathological studies.

Assay [2] has as its system STZ diabetic rats. In words: Hemoglobin, glycosylated hemoglobin and plasma insulin in STZ diabetic rats. The note with it: Glibenclamide 10 mg/kg p.o. (Group III), 21 days, ± S.E, n=6. As for the experimental part: as §1
as §2, with “Group V consisted of diabetic rats treated orally with 1000 mg of tablet suspended in 0.5% carboxy methylcellulose solution.” left out

Assay [3] concerns STZ diabetic rats. In words: Serum AST, ALT and ALP in STZ diabetic rats. The following applies: Glibenclamide 10 mg/kg p.o. (Group III), 21 days, ± S.E, n=6. As for the experimental part:
as §1, §2, §3

The subject of assay [4] is STZ induced diabetic rats. In words: Blood glucose in STZ induced diabetic rats (glucometer, tail vein). The note with it: Glibenclamide 10 mg/kg p.o. daily, n=6. As for the experimental part:
as §1, §2, §3

Assay [5] in a line: Body weight development in STZ diabetic rats. The note with it: Glibenclamide 10 mg/kg p.o. (Group III), ± S.E, n=6. As for the experimental part: as §1
as §2, with “Group V consisted of diabetic rats treated orally with 1000 mg of tablet suspended in 0.5% carboxy methylcellulose solution.” left out

The structures appear in SMILES notation.

On to `COc1ccc(Cl)cc1C(=O)NCCc1ccc(S(=O)(=O)NC(=O)NC2CCCCC2)cc1` [Glibenclamide, glibenclamide], for which, in the assay with STZ diabetic rats [1], the Creatinine was 1.04 ± 0.01^b** mg/dl, the Protein is on record as 126.4 ± 2.84^b*** mg/dl and the Uric acid is on record as 1.57 ± 0.06^b*** mg/dl. Besides, in the assay on STZ diabetic rats [2], the HBA1C is on record as 0.17 ± 0.008^b*** % Hb and the “Plasma Insulin” value is reported as 16.4 ± 0.27^b*** μU/ml. Further, in the assay on STZ diabetic rats [3], the ALP is 171.9 ± 4.07 ^b*** μmoles of phenol liberated/min/mg of protein, the ALT is reported as 56.4 ± 1.54 ^b*** μmoles of pyruvate/h/mg/of protein and the AST is reported as 161.0 ± 64.0 ^b*** μmoles of pyruvate/h/mg/of protein. Moreover, the “Blood Sugar, 1 Day” value in assay [4] (day 1, mean) came out at 290.50 mg/dL. Also, the “Blood Sugar, 3 Day” value in assay [4] (day 3, mean) stood at 210.17 mg/dL. The “Blood Sugar, 7 Day” value in assay [4] (day 7, mean) amounted to 157.67 mg/dL. Moreover, the “Blood Sugar, 14 Day” value in assay [4] (day 14, mean) was 124.50 mg/dL. For the same compound, the “Blood Sugar, 21 Day” value in assay [4] (day 21, mean) was determined as 113.17 mg/dL. Also, the “Body Weight Final” value in assay [5] (21 days) was 161.13 ± 2.14^b* g. In addition, the “Body Weight Initial” value in assay [5] was determined as 163.6 ± 1.42 g.
